Experimental data from US8309546B2, “Morpholinopurine derivatives” (Daiichi Sankyo Company, Limited, priority 2008, dated 2012).

Columns and labels:
[1] = test system: human endometrial cancer cell strain AN3CA tumor; assay: Anti-tumor effect assay using mouse subcutaneous transplantation model; type: in vivo, female nude mouse; settings: AN3-CA, oral, tumor weight vs negative control, read-out: Anti-tumor effect (tumor growth inhibition rate); for inhibition in vivo at 5 mg/kg/day / inhibition in vivo at 10 mg/kg/day / inhibition in vivo at 2.5 mg/kg/day: 8 or 5 consecutive days depending on compound
Procedure, shortened: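 Female nude mice bore subcutaneous AN3CA tumour-section xenografts and were grouped at 80 to 200 mm^3 estimated volume. Compound was given orally at a set dose for 8 consecutive days with tumour weight taken the next day, or for 5 days with weight taken on the final dosing day. Effect = {1−(treated/negative-control tumour weight)}×100.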

PI3Kα = PI3Kα (Homo sapiens, UniProt P42336); assay: PI3K kinase activity inhibition assay; type: biochemical; settings: Kinase-Glo Plus ATP detection, read-out: IC50 against PI3K
Sequence of PI3Kα (P42336 whole entry, species assumed): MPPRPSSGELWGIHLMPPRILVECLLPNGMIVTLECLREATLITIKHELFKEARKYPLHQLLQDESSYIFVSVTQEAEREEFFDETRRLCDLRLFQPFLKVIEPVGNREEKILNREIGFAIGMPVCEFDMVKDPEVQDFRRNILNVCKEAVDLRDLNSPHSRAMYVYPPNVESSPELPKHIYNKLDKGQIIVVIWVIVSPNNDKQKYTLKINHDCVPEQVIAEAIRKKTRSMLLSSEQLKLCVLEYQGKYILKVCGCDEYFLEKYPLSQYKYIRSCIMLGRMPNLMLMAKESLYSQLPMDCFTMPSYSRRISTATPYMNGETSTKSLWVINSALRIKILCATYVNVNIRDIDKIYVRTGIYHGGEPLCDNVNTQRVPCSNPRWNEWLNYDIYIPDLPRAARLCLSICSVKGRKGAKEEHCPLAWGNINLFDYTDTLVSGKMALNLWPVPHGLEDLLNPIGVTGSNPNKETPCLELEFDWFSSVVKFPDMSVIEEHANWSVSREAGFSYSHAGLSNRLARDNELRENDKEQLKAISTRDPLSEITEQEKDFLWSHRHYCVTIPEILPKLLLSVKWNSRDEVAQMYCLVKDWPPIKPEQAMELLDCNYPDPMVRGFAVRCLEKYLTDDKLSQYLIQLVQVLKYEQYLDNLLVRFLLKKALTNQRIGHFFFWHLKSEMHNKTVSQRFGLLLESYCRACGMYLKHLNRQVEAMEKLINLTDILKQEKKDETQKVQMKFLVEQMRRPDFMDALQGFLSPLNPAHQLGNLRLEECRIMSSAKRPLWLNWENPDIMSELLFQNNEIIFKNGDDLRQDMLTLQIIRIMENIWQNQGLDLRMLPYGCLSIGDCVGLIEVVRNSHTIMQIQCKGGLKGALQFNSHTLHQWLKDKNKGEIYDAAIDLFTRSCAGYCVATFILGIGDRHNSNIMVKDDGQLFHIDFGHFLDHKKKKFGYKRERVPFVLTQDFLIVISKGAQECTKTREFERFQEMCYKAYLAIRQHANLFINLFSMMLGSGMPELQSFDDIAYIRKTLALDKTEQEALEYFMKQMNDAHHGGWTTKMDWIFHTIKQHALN
Sequence of PI3Kα (P27986 whole entry partner, species assumed): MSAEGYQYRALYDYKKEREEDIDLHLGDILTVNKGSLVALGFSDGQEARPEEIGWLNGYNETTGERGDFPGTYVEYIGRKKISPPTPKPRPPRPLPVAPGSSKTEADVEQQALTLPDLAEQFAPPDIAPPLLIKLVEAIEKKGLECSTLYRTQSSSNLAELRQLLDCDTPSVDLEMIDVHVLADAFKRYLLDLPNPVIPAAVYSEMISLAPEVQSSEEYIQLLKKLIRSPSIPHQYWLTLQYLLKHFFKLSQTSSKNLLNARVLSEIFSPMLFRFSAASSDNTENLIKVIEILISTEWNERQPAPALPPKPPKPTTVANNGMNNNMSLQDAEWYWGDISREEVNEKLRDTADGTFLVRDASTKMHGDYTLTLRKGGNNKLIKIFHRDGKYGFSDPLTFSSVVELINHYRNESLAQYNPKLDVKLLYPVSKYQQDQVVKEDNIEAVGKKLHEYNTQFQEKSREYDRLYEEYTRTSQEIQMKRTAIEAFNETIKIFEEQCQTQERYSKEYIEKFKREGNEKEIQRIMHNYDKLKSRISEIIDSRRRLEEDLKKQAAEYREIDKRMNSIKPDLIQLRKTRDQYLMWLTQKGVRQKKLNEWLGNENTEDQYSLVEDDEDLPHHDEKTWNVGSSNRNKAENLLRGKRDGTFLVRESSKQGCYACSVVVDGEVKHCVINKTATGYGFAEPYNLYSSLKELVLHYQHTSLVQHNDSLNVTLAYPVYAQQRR
Procedure, shortened: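 PI3Kα (50 nM solution) was reacted with 30 μM ATP and 45 μM PIP2 solutions, each in HEPES pH 7.4 with MgCl2 and DTT, for 2 h at room temperature. Remaining ATP was measured by Kinase-Glo Plus luminescence, and inhibition was derived from ATP consumed. IC50 was taken from curve fitting of the serial dilutions.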

[2] = test system: Akt (threonine 308) phosphorylation in AN3CA tumor; assay: Akt phosphorylation inhibition assay in xenograft; type: in vivo, female nude mouse; settings: Mus musculus, AN3-CA, oral, 6 hr after dosing
Procedure, shortened: (§1)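 AN3CA human endometrial cancer cells grown as subcutaneous xenografts in female nude mice; compound dosed orally at a set concentration, tumors excised after a set time. Tumor lysates at equal protein were western blotted for p-Akt(T308) and p-S6(S235/236). Inhibition (%) = 100−100×(treated/untreated phospho signal).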

[3] = test system: S6 (serine 235 and 236) phosphorylation in AN3CA tumor; assay: S6 phosphorylation inhibition assay in xenograft; type: in vivo, female nude mouse; settings: Mus musculus, AN3-CA, oral, 6 hr after dosing
Procedure, shortened: as §1

Row | IC50 (PI3Kα) [nM] | Structure (SMILES) | inhibition in vivo at 5 mg/kg/day [1] [%] | inhibition in vivo at 10 mg/kg/day [1] [%] | inhibition at 10 mg/kg [2] [%] | inhibition at 10 mg/kg [3] [%] | inhibition in vivo at 1.25 mg/kg/day ([1]; 120 h, 1.25 mg/kg/day, 5 consecutive days) [%] | inhibition in vivo at 2.5 mg/kg/day [1] [%] | inhibition in vivo at 1.875 mg/kg/day ([1]; 120 h, 5 consecutive days) [%] | inhibition in vivo at 7.5 mg/kg/day ([1]; 120 h, 5 consecutive days) [%] | inhibition in vivo at 0.875 mg/kg/day ([1]; 120 h, 0.875 mg/kg/day, 5 consecutive days) [%] | inhibition in vivo at 3.5 mg/kg/day ([1]; 120 h, 3.5 mg/kg/day, 5 consecutive days) [%]
1 | 10 to 20 | CC(C)Cn1c(N2CCN(C=O)CC2)nc2c(N3CCOCC3)nc(-c3cnc(N)nc3)nc21 [Example 90, 4-[2-(2-Aminopyrimidin-5-yl)-9-isobutyl-6-morpholin-4-yl-9H-purin-8-yl]piperazine-1-carboaldehyde] | 40 | 80 | > 60 | > 90 |  |  |  |  |  | 
2 | < 10 | CNc1ncc(-c2nc(N3CCOCC3)c3nc(N4CCN(C(C)=O)[C@@H](C)C4)n(CC(F)(F)F)c3n2)cn1 [Example 107, 5-{8-[(3S)-4-Acetyl-3-methylpiperazin-1-yl]-6-morpholin-4-yl-9-(2,2,2-trifluoroethyl)-9H-purin-2-yl}-N-methylpyrimidin-2-amine] | 76 |  | > 60 | > 90 | 46 |  |  |  |  | 
3 | 10 to 20 | CNc1ncc(-c2nc(N3CCOCC3)c3nc(N4CCN(C(C)=O)[C@H](C)C4)n(CC(F)(F)F)c3n2)cn1 [Example 108, 5-{8-[(3R)-4-Acetyl-3-methylpiperazin-1-yl]-6-morpholin-4-yl-9-(2,2,2-trifluoroethyl)-9H-purin-2-yl}-N-methylpyrimidin-2-amine] |  | 82 | > 60 | > 90 |  | 53 |  |  |  | 
4 | < 10 | C[C@H](O)C(=O)N1CCN(c2nc3c(N4CCOCC4)nc(-c4cnc(N)nc4)nc3n2CC(F)(F)F)C[C@H]1C [Example 110, (2S)-1-{(2R)-4-[2-(2-Aminopyrimidin-5-yl)-6-morpholin-4-yl-9-(2,2,2-trifluoroethyl)-9H-purin-8-yl]-2-methylpiperazin-1-yl}-1-oxopropan-2-ol] |  |  | > 60 | > 90 |  |  | 43 | 73 |  | 
5 | 10 to 20 | C[C@H](O)C(=O)N1CCN(c2nc3c(N4CCOCC4)nc(-c4cnc(N)nc4)nc3n2CC2CC2)C[C@@H]1C [Example 92, (2S)-1-{(2S)-4-[2-(2-Aminopyrimidin-5-yl)-9-(cyclopropylmethyl)-6-morpholin-4-yl-9H-purin-8-yl]-2-methylpiperazin-1-yl}-1-oxopropan-2-ol] | 52 | 61 | > 60 | > 90 |  |  |  |  |  | 
6 | < 10 | CC[C@H]1CN(c2nc3c(N4CCOCC4)nc(-c4cnc(N)nc4)nc3n2CC(F)(F)F)CCN1C(C)=O [Example 75, 5-{8-[(3S)-4-Acetyl-3-ethylpiperazin-1-yl]-6-morpholin-4-yl-9-(2,2,2-trifluoroethyl)-9H-purin-2-yl}pyrimidin-2-amine] |  |  | > 60 | > 90 |  |  | 44 | 77 |  | 
7 | 10 to 20 | CC(=O)N1CCN(c2nc3c(N4CCOCC4)nc(-c4cnc(N)nc4)nc3n2CC(C)C)C[C@@H]1C [Example 101, 5-{8-[(3S)-4-Acetyl-3-methylpiperazin-1-yl]-9-isobutyl-6-morpholin-4-yl-9H-purin-2-yl}pyrimidin-2-amine] | 69 |  | > 60 | > 90 |  | 42 |  |  |  | 
8 | < 10 | CC(C)Cn1c(N2CCN(C=O)[C@@H](C)C2)nc2c(N3CCOCC3)nc(-c3cnc(N)nc3)nc21 [Example 102, (2S)-4-[2-(2-Aminopyrimidin-5-yl)-9-isobutyl-6-morpholin-4-yl-9H-purin-8-yl]-2-methylpiperazine-1-carboaldehyde] | 64 |  | > 60 | > 90 |  | 54 |  |  |  | 
9 | < 10 | CC(C)Cn1c(N2CCN(C(=O)C[C@@H](C)O)CC2)nc2c(N3CCOCC3)nc(-c3cnc(N)nc3)nc21 [Example 81, (2R)-4-{4-[2-(2-Aminopyrimidin-5-yl)-9-isobutyl-6-morpholin-4-yl-9H-purin-8-yl]piperazin-1-yl}-4-oxobutan-2-ol] | 37 | 74 | > 60 | > 90 |  |  |  |  |  | 
10 | < 10 | CC(=O)N1CCN(c2nc3c(N4CCOCC4)nc(-c4cnc(N)nc4)nc3n2CC(F)(F)F)C[C@@H]1C [Example 63, 5-{8-[(3S)-4-Acetyl-3-methylpiperazin-1-yl]-6-morpholin-4-yl-9-(2,2,2-trifluoroethyl)-9H-purin-2-yl}pyrimidin-2-amine] |  |  | > 60 | > 90 |  |  |  |  | 52 | 88
11 | < 10 | CC(C)Cn1c(N2CCN(C(=O)[C@@H](C)O)CC2)nc2c(N3CCOCC3)nc(-c3cnc(N)nc3)nc21 [Example 93] | 54 |  | > 60 | > 90 |  | 42 |  |  |  | 
12 | < 10 | C[C@H](O)C(=O)N1CCN(c2nc3c(N4CCOCC4)nc(-c4cnc(N)nc4)nc3n2CC2CC2)CC1 [Example 88, (2S)-1-{4-[2-(2-Aminopyrimidin-5-yl)-9-(cyclopropylmethyl)-6-morpholin-4-yl-9H-purin-8-yl]piperazin-1-yl}-1-oxopropan-2-ol] | 30 | 54 | > 60 | 70 to 90 |  |  |  |  |  | 
13 | < 10 | CS(=O)(=O)N1CCN(c2nc3c(N4CCOCC4)nc(-c4cnc(N)nc4)nc3n2CC(F)(F)F)CC1 [Example 8, 5-{8-[4-(Methylsulfonyl)piperazin-1-yl]-6-morpholin-4-yl-9-(2,2,2-trifluoroethyl)-9H-purin-2-yl}pyrimidin-2-amine] | 93 |  | > 60 | > 90 |  | 72 |  |  |  | 
